Measured values from patent US20200179369A1, “TREATMENT OF DIABETIC NEPHROPATHY” (TAKEDA GMBH, priority 2015, published 2020).

How the values were obtained:
[1] = system: uninephrectomized db/db mice; test: Diabetic nephropathy in uninephrectomized db/db mice, 8 week treatment starting 4 weeks after the uninephrectomy; assay type: in vivo; conditions: 8 weeks starting 4 weeks after uninephrectomy
Procedure: Male 5-week-old BKS.Cg-+Lepr^db/+Lepr^db (db/db) mice were purchased from CLEA Japan, Inc. All mice were fed with a standard diet (CE-2, CLEA Japan, Inc.) and tap water ad libitum.
Compound A was obtained from Takeda GmbH, Konstanz, Germany. Irbesartan was purchased from LKT Laboratories, Inc (USA).
In 6 week old male db/db mice an unilateral nephrectomy was performed. Under the anesthesia with isoflurane inhalation, the right kidney was removed from the mice. After 4-week recovery period, blood samples were obtained by the puncture of facial vein and blood level of glycosylated hemoglobin (GHb) was measured by automated HPLC-based GHb analyzer (HLC-723 G8, TOSOH, Japan). After the separation of plasma samples by centrifugation, also plasma levels of glucose (PG) were measured by Autoanalyzer 7180 (Hitachi, Japan). Urine samples were collected for a 8 h time-period using metabolic cages and urine creatinine level was measured by Autoanalyzer 7180. After desaltation of urine samples with PD MiniTrap G-25 column (GE healthcare, UK), urinary levels of albumin were measured by ELISA, and urinary albumin/creatinine ratio (UACR) was calculated.
Compound A (1, 3 and 10 mg/kg, QD), roflumilast (3 mg/kg, QD) and irbesartan (50 mg/kg, QD) were suspended in 0.5% methyl cellulose solution and orally administered to mice for 8 weeks starting 4 weeks after the uninephrectomy.
At the end of the 8 weeks once daily administration blood, plasma and urine samples were obtained according to the same methods as described above. GHb, PG, urinary creatinine and albumin were measured and UACR was calculated. Body weight (BW) was measured every week during the treatment.
For evaluation of the effects of Compound A, statistical differences between vehicle- and Compound A treated groups were analyzed with two-tailed Williams' test for PG and BW and two-tailed Shirley-Williams' test for UACR and GHb. The P-values less than 0.05 were considered statistically significant in two-tailed Williams' test or Shirley-Williams' test.
For roflumilast and irbesartan, statistical differences between vehicle- and compounds-treated groups were analyzed with Student's t-test for GHb, PG and BW and Welch test for UACR. The P-values less than 0.05 were considered statistically significant in Student's t-test and Welch test.

[2] = system: uninephrectomized db/db mice; test: Diabetic nephropathy in uninephrectomized db/db mice, 8 week treatment starting 12 weeks after the uninephrectomy; assay type: in vivo; conditions: 8 weeks starting 12 weeks after uninephrectomy
Procedure: The experimental protocol is similar to the experimental protocol described above with the exception that the 8 week treatment with Compound A or irbesartan was started not already at 4 weeks after the uninephrectomy, but only 12 weeks after the uninephrectomy (i.e. when the increase of urinary albumin/creatinine ratio (UACR) is already in a much more advanced stage). Roflumilast was not used as a comparator in this experiment.
Compound A (1, 3 and 10 mg/kg, QD) and irbesartan (50 and 100 mg/kg, QD) were suspended in 0.5% methyl cellulose solution and orally administered to mice for 8 weeks starting 12 weeks after the uninephrectomy.
For evaluation of the effects of Compound A, statistical differences between vehicle- and Compound A treated groups were analyzed with one-tailed Williams' test for GHB, PG and BW and one-tailed Shirley-Williams' test for UACR. For irbesartan, statistical differences between vehicle- and irbesartan treated groups were analyzed with one-tailed Williams' test for UACR, GHb, PG and BW. The P-values less than 0.025 were considered statistically significant in one-tailed Williams' test or one-tailed Shirley-Williams' test.

Structure (SMILES)	effect on blood level of glycosylated hemoglobin (GHb) ([1]; 50 mg/kg QD oral)	effect on increase of urinary albumin/creatinine ratio (UACR) ([1]; 50 mg/kg QD oral)	effect on plasma levels of glucose (PG) ([1]; 50 mg/kg QD oral)	effect on urinary albumin/creatinine ratio (UACR) ([2]; 50 mg/kg QD oral)	effect on urinary albumin/creatinine ratio (UACR) ([2]; 100 mg/kg QD oral)	effect on body weight (BW) ([2]; 50 and 100 mg/kg QD oral)	effect on glucose plasma levels (PG) ([2]; 50 and 100 mg/kg QD oral)	effect on glycosylated hemoglobin (GHb) ([2]; 50 and 100 mg/kg QD oral)	effect on blood level of glycosylated hemoglobin (GHb) ([1]; 3 mg/kg QD oral)	effect on increase of urinary albumin/creatinine ratio (UACR) ([1]; 3 mg/kg QD oral)	effect on plasma levels of glucose (PG) ([1]; 3 mg/kg QD oral)
CCCCC1=NC2(CCCC2)C(=O)N1Cc1ccc(-c2ccccc2-c2nnn[nH]2)cc1 [irbesartan, 2-butyl-3-[p-(o-1H-tetrazol-5-ylphenyl)benzyl]-1,3-diazaspiro[4.4]non-1-en-4-one, reference compound]	Almost no effect compared to the vehicle group	tended to suppress the increase of UACR, but its effect was not statistically significant	Almost no effect compared to the vehicle group	significant suppression on increase in UACR	significant suppression on increase in UACR	Neither Compound A nor Irbesartan affected the body weight	did not show inhibitory effects	did not show inhibitory effects			
O=C(Nc1c(Cl)cncc1Cl)c1ccc(OC(F)F)c(OCC2CC2)c1 [roflumilast, reference compound]									Almost no effect compared to the vehicle group	mild and was not statistically significant	Almost no effect compared to the vehicle group
